The values that follow are results of earlier work, collected in patent US12534749B2, “Monoacylated MEL-producing microorganism” (NATIONAL INSTITUTE OF ADVANCED INDUSTRIAL SCIENCE AND …, priority 2019, dated 2026).

The conditions of this series: known value, T. Fukuoka et al., Carbohydrate Research 351 (2012) 81-86.

On to diacylated MEL-B, for which the CMC is 3.1 µM.
